# Entries after “also recorded” stand apart in the source; their conditions may differ.
# Columns and labels:
# Format in all cases: cell-based, human
# [1] = test system: CD138neg MM progenitors derived from primary clinical specimens; experiment: Clonogenic recovery of CD138neg MM progenitors from primary clinical samples; conditions: 4 MM patients; FIG. 10C; P>0.2 compared to the untreated control
# clonogenic MM cells = experiment: In vitro clonogenic growth of MM precursors (summary statements); conditions: summary statement
# Excerpt: Many agents are active in multiple myeloma (MM), but the majority of patients relapse. […] We further characterized clonogenic MM cells and stained cell lines using the Hoechst side population and Aldefluor assays. […] Furthermore, both the side population and Aldefluor assays were capable of identifying circulating clonotypic memory B cell populations within the peripheral blood of MM patients.
# CD138^− precursors or CD138^+ plasma cells were isolated from the RPMI 8226 or NCI-H929 cell lines and treated with each of the two humanized monoclonal antibodies, rituximab or alemtuzumab, and in combination with human complement that strongly enhances their in vitro activity through complement dependent cytoxicity. Neither complement alone nor the monoclonal antibodies with or without complement affected the clonogenic growth of CD138^+ plasma cells that lack the target antigens (FIG. 8B; P>0.3 for all groups compared to the untreated control).
# Although stem cells have been identified in an increasing number of human cancers, the clinical relevance and implications of these findings remain unclear. Standard response criteria used to measure the clinical efficacy of anti-cancer treatments primarily reflect changes in disease bulk and activity against mature tumor cells. Since cancer stem cells are a relatively low frequency population in most tumor types, the true inhibition of these cells is likely to be difficult to assess early following treatment, and a prolongation of disease remission would be required to establish such activity. The initial clinical responses induced by dexamethasone, lenalidomide, bortezomib and cyclophosphamide seen as decreased bone marrow plasmacytosis and monoclonal Ig levels in MM likely reflect the activity of these agents against mature MM plasma cells. […] It is well known that the anti-tumor activity of these agents is mediated in part by modulating the interaction between myeloma plasma cells and bone marrow stromal cells.
# Our results complement a recent report describing the relative radioresistance of glioblastoma cancer stem cells compared to the differentiated cells that make up the bulk of the tumor mass. The stark biological differences between cancer stem cells and mature tumor cells is likely to be representative of many other malignancies as the clinical pattern of relapse following effective treatment can be seen in most human cancers. Therefore, therapeutic strategies that target the specific biology of cancer stem cells are likely required to prevent the continued production of mature tumor cells and produce sustained remissions. […] Therefore, optimal clinical strategies may require combining agents active against MM plasma cells to decrease tumor burden and alleviate symptoms with those that target MM cancer stem cells to prevent tumor regrowth and relapse.
# [2] = test system: CD138+ plasma cells from the RPMI 8226 and NCI-H929 MM cell lines; experiment: Clonogenic growth of CD138+ plasma cells isolated from MM cell lines; conditions: FIGS. 10A and B, P<0.02 compared to the untreated control
Compound,effect on clonogenic MM precursors from patients [1],effect of anti-myeloma agents on CD138neg precursors / clonogenic MM progenitors (clonogenic MM cells),clonogenic growth of CD138+ plasma cells [2],effect of anti-myeloma agents on CD138neg precursors / clonogenic MM progenitors (clonogenic MM cells; listed as lenadilomide),effect of antibodies on clonogenic MM cells (clonogenic MM cells)
CC(C)C[C@H](NC(=O)[C@H](Cc1ccccc1)NC(=O)c1cnccn1)B(O)O [bortezomib],not significantly affected,little effect; also recorded: similarly resistant,inhibited,,
Nc1cccc2c1CN(C1CCC(=O)NC1=O)C2=O (stereo not drawn) [lenalidomide],not significantly affected,similarly resistant,inhibited,little effect,
Rituximab: humanized monoclonal antibody that targets the B-cell antigen CD20,,,,,inhibit clonogenic MM cells
alemtuzumab: humanized monoclonal antibody that targets the B-cell antigen CD52,,,,,inhibit clonogenic MM cells
